According to the supplement of paper PMC11451515:

System: NOMO1
Assay: cell viability relative to DMSO control; higher = less cytotoxic
Settings: 48 h
Outline: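 Before seeding, each leukemia line was adapted for at least four passages in each medium. NOMO1 or SEM cells (500 cells/well) and P12-Ichikawa cells (1000 cells/well) went into 1536-well plates at 5 μl, then received library compounds in DMSO by pin dosing across 11 threefold concentrations, 47 μM to 0.79 nM. Readout was CellTiter-Glo One luminescence after 48 h at 37°C, and viability is given as a per-plate percentage of DMSO wells, with cell-free wells as background.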

[1] = HPLM + 10% dialyzed FBS, 0.000781 µM
[2] = HPLM + 10% dialyzed FBS, 0.00234 µM
[3] = HPLM + 10% dialyzed FBS, 0.00702 µM
[4] = HPLM + 10% dialyzed FBS, 0.0211 µM
[5] = HPLM + 10% dialyzed FBS, 0.0632 µM
[6] = HPLM + 10% dialyzed FBS, 0.19 µM
[7] = HPLM + 10% dialyzed FBS, 0.569 µM
[8] = HPLM + 10% dialyzed FBS, 1.71 µM
[9] = HPLM + 10% dialyzed FBS, 5.12 µM
[10] = HPLM + 10% dialyzed FBS, 15.4 µM
[11] = HPLM + 10% dialyzed FBS, 46.1 µM
[12] = RPMI 5 mM glucose + 10% dialyzed FBS, 0.000781 µM
[13] = RPMI 5 mM glucose + 10% dialyzed FBS, 0.00234 µM
[14] = RPMI 5 mM glucose + 10% dialyzed FBS, 0.00702 µM
[15] = RPMI 5 mM glucose + 10% dialyzed FBS, 0.0211 µM
[16] = RPMI 5 mM glucose + 10% dialyzed FBS, 0.0632 µM
[17] = RPMI 5 mM glucose + 10% dialyzed FBS, 0.19 µM
[18] = RPMI 5 mM glucose + 10% dialyzed FBS, 0.569 µM
[19] = RPMI 5 mM glucose + 10% dialyzed FBS, 1.71 µM
[20] = RPMI 5 mM glucose + 10% dialyzed FBS, 5.12 µM
[21] = RPMI 5 mM glucose + 10% dialyzed FBS, 15.4 µM
[22] = RPMI 5 mM glucose + 10% dialyzed FBS, 46.1 µM
[23] = RPMI 5 mM glucose + 10% FBS, 0.000781 µM
[24] = RPMI 5 mM glucose + 10% FBS, 0.00234 µM
[25] = RPMI 5 mM glucose + 10% FBS, 0.00702 µM
[26] = RPMI 5 mM glucose + 10% FBS, 0.0211 µM
[27] = RPMI 5 mM glucose + 10% FBS, 0.0632 µM
[28] = RPMI 5 mM glucose + 10% FBS, 0.19 µM
[29] = RPMI 5 mM glucose + 10% FBS, 0.569 µM
[30] = RPMI 5 mM glucose + 10% FBS, 1.71 µM
[31] = RPMI 5 mM glucose + 10% FBS, 5.12 µM
[32] = RPMI 5 mM glucose + 10% FBS, 15.4 µM
[33] = RPMI 5 mM glucose + 10% FBS, 46.1 µM

| SMILES | cell viability [1] | cell viability [2] | cell viability [3] | cell viability [4] | cell viability [5] | cell viability [6] | cell viability [7] | cell viability [8] | cell viability [9] | cell viability [10] | cell viability [11] | cell viability [12] | cell viability [13] | cell viability [14] | cell viability [15] | cell viability [16] | cell viability [17] | cell viability [18] | cell viability [19] | cell viability [20] | cell viability [21] | cell viability [22] | cell viability [23] | cell viability [24] | cell viability [25] | cell viability [26] | cell viability [27] | cell viability [28] | cell viability [29] | cell viability [30] | cell viability [31] | cell viability [32] | cell viability [33] |
| --- | --- | --- | --- | --- | --- | --- | --- | --- | --- | --- | --- | --- | --- | --- | --- | --- | --- | --- | --- | --- | --- | --- | --- | --- | --- | --- | --- | --- | --- | --- | --- | --- | --- |
| O=C(NCCO[N+](=O)[O-])c1cccnc1 | 112% | 124% | 123% | 133% | 137% | 126% | 136% | 135% | 129% | 123% | 62.3% | 118% | 120% | 123% | 135% | 127% | 119% | 133% | 124% | 125% | 125% | 92.1% | – | – | – | – | – | – | – | – | – | – | – |
| C=C[C@H]1CN2CCC1C[C@@H]2[C@@H](O)c1ccnc2ccccc12 (stereo not given in full) | 97% | 109% | 105% | 93.7% | 99.7% | 107% | 92.7% | 97.1% | 86% | 93.1% | 74.9% | 101% | 114% | 96.7% | 99.3% | 92.6% | 96% | 85.2% | 99.1% | 84.1% | 85.4% | 76.8% | 90.3% | 90.6% | 94.1% | 85.4% | 91.4% | 91.1% | 84.9% | 86.1% | 89.9% | 83.8% | 85.2% |
| CC(=O)OCC(=O)[C@@]12OC(C)(C)O[C@@H]1C[C@H]3[C@@H]4C[C@H](F)C/5=C/C(=O)/C=C\[C@]5(C)[C@@]4(F)[C@@H](O)C[C@]23C | 120% | 117% | 115% | 126% | 114% | 115% | 105% | 115% | 112% | 120% | 122% | 109% | 108% | 104% | 113% | 111% | 132% | 116% | 132% | 131% | 121% | 144% | 103% | 107% | 103% | 119% | 114% | 109% | 111% | 113% | 116% | 123% | 128% |
| CCOC(CN1C(=O)[C@](CC(=O)Nc2ccc(C)cc2)(NC(=O)Nc2ccc(C)cc2)c2ccccc21)OCC | 109% | 112% | 125% | 113% | 123% | 122% | 126% | 124% | 106% | 83.8% | 70.7% | 99.2% | 101% | 105% | 99.8% | 114% | 115% | 109% | 115% | 99.3% | 93% | 60.3% | 110% | 107% | 106% | 107% | 113% | 104% | 123% | 125% | 113% | 103% | 49.8% |
| O=[N+]([O-])c1ccc(Nc2ccccc2-c2ccccc2)c2nonc12 | 87.1% | 84.3% | 100% | 92.6% | 81.9% | 100% | 97% | 101% | 106% | 89% | 98.1% | 76.3% | 82.6% | 88% | 89.8% | 92.5% | 90.2% | 89.2% | 96.1% | 87.5% | 78.2% | 88.7% | 81.5% | 89.9% | 87.9% | 91.9% | 85.3% | 92.8% | 84.4% | 102% | 95.8% | 94.2% | 89.4% |
| C/C(=C\c1csc(C)n1)[C@@H]1C[C@@H]2O[C@@H]2CCC[C@H](C)[C@H](O)[C@@H](C)C(=O)C(C)(C)[C@@H](O)CC(=O)O1 | 33.3% | 25.8% | 27.8% | 28.4% | 29.2% | 31.6% | 30.1% | 30.5% | 34.8% | 34% | 30.7% | 84.5% | 20.9% | 20% | 21.6% | 23.3% | 20.9% | 21.7% | 25.8% | 24.2% | 31.1% | 23.3% | 27.2% | 19.5% | 17.9% | 20.3% | 18.1% | 18% | 17.8% | 18.7% | 18.1% | 22.8% | 19.8% |
| Cn1cc(-c2cnn3c(N)c(Br)c([C@@H]4CCCNC4)nc23)cn1 | 99.8% | 107% | 111% | 102% | 101% | 99% | 93.2% | 47.7% | 21.8% | 15.8% | 27.6% | 78.7% | 93.1% | 84.1% | 98.2% | 95.3% | 92.5% | 81.2% | 33.4% | 20.1% | 16.5% | 19% | 99.7% | 88% | 88.8% | 85.2% | 89.7% | 89.3% | 84.2% | 60.3% | 16.4% | 11.3% | 12.8% |
| CN1CC/C(CC1)=C3\c4ccccc4CC(=O)c2sccc23 | 120% | 125% | 114% | 121% | 130% | 128% | 153% | 135% | 110% | 112% | 105% | – | – | – | – | – | – | – | – | – | – | – | 120% | 123% | 136% | 135% | 136% | 134% | 156% | 131% | 142% | 151% | 128% |
| Cn1cnc(-c2cc3nccc(Oc4ccc(NC(=S)NC(=O)Cc5ccccc5)cc4F)c3s2)c1 | 72.5% | 93.2% | 84.1% | 92.4% | 99.9% | 97.1% | 91.3% | 86% | 77.9% | 62% | 25.8% | 84% | 81.2% | 68.1% | 86% | 93.6% | 101% | 83% | 90% | 86.1% | 88.1% | 26.7% | 77.3% | 88.3% | 77.4% | 86.2% | 89.8% | 96.4% | 89.6% | 87.5% | 82.2% | 85.2% | 20.5% |
| O=C(O)[C@@H](c1ccc(OCc2ccc3ccccc3n2)cc1)C1CCCC1 | 118% | 114% | 118% | 126% | 106% | 119% | 115% | 119% | 110% | 109% | 90.5% | 119% | 101% | 122% | 113% | 123% | 119% | 103% | 108% | 106% | 100% | 95.4% | 104% | 117% | 107% | 109% | 125% | 111% | 104% | 121% | 113% | 102% | 120% |
| CC(=O)Oc1cc2c(s1)CCN(C(C(=O)C1CC1)c1ccccc1F)C2.Cl (stereo not given) | 90.3% | 106% | 104% | 117% | 98.3% | 107% | 116% | 64.7% | 58% | 42.7% | 16% | 88% | 95.6% | 100% | 101% | 90.4% | 99.6% | 103% | 86.4% | 62.1% | 40.3% | 25.1% | 98.5% | 92.7% | 95.5% | 94.3% | 97.3% | 108% | 91.1% | 76.8% | 64.4% | 51.7% | 18.7% |
| COc1cccc2c(NCc3ccccc3)nc(-n3c(N)nc4ccccc43)nc12 | 85.6% | 106% | 94.9% | 110% | 129% | 105% | 115% | 107% | 107% | 97% | 18.8% | 91.2% | 96.2% | 119% | 111% | 111% | 108% | 103% | 112% | 100% | 97.2% | 23.3% | 92.8% | 96.2% | 105% | 105% | 117% | 107% | 106% | 101% | 101% | 102% | 16.7% |
| COc1nccc(-c2c(-c3ccc(F)cc3)ncn2C2CCC(O)CC2)n1 (stereo not given) | 120% | 123% | 121% | 123% | 132% | 121% | 111% | 122% | 112% | 119% | 51.3% | 122% | 114% | 126% | 109% | 116% | 118% | 105% | 118% | 111% | 107% | 74.3% | 107% | 109% | 120% | 115% | 111% | 112% | 103% | 100% | 98.4% | 100% | 35.9% |
| C[C@H]1C[C@H]2[C@@H]3CCC4=CC(=O)C=C[C@]4(C)[C@H]3C(=O)C[C@]2(C)[C@@]1(O)C(=O)CO | 89.9% | 80.3% | 81.2% | 103% | 86.3% | 109% | 98.9% | 96% | 86.8% | 99.8% | 83% | 83% | 78.4% | 77.9% | 56.5% | 78.8% | 82.4% | 99.8% | 85.1% | 94.4% | 78% | 93.2% | 82.7% | 90.2% | 86.9% | 91.6% | 80.8% | 79.9% | 81.3% | 83.8% | 86.5% | 86.3% | 92.2% |
